PMC6197744, “Triazolo[4,5-d]pyrimidines as Validated General Control Nonderepressible 2 (GCN2) Protein Kinase Inhibitors Reduce Growth of Leukemia Cells” (Computational and Structural Biotechnology Journal, 2018)

Assays:
MDA-MB-468 = test: NCI-60 one-dose screen; type: cell-based; conditions: Homo sapiens; Breast MDA-MB-468, 10 μM, 48 h; read-out: Percent growth inhibition
Experimental: (§1) Compounds 1 and 2 were submitted to the National Cancer Institute NCI-60 Tumor Cell Screening Program (NCI number 800,700 and 800,701, respectively) for evaluation against the 60 cell line NCI panel at a single dose of 10 μM. […] Leukemia and breast cancer cell lines comprised the only cancer groups that were uniformly sensitive to both 1 and 2, with the greatest sensitivity seen in the leukemia SR cell line.
(§2) Compounds 1 and 2 were submitted to the NCI for growth inhibition screening against its panel of 60 cancer cell lines. The NCI screening protocol has extensively been described [[53], [54], [55], [56]]. Briefly, cancerous cell lines were grown in RPMI 1640 medium containing 5% fetal bovine serum and 2 mM L-glutamine. Depending on the doubling time of each cell line, 5000–40,000 cells were seeded in 96-well plates for 24 h. Cells were then treated with compounds 1 or 2 at a concentration of 10 μM and incubated for 48 h at 37 °C in a humidified atmosphere containing 5% CO2. The cells were then fixed and stained with sulforhodamine B (SRB) to determine their viability. The data were analyzed using a program called COMPARE to determine the percent growth inhibition of each compound.

OVCAR-3 = test: NCI-60 one-dose screen; type: cell-based; conditions: Homo sapiens; Ovarian OVCAR-3, 10 μM, 48 h; read-out: Percent growth inhibition
Experimental: as §1, §2

RXF393 = test: NCI-60 one-dose screen; type: cell-based; conditions: Homo sapiens, RXF 393; Renal RXF393, 10 μM, 48 h; read-out: Percent growth inhibition
Experimental: as §1, §2

SF-539 = test: NCI-60 one-dose screen; type: cell-based; conditions: Homo sapiens; CNS SF-539, 10 μM, 48 h; read-out: Percent growth inhibition
Experimental: as §1, §2

OVCAR-5 = test: NCI-60 one-dose screen; type: cell-based; conditions: Homo sapiens; Ovarian OVCAR-5, 10 μM, 48 h; read-out: Percent growth inhibition
Experimental: as §1, §2

U251 = test: NCI-60 one-dose screen; type: cell-based; conditions: Homo sapiens, U-251; CNS U251, 10 μM, 48 h; read-out: Percent growth inhibition
Experimental: as §1, §2

MDA-MB-435 = test: NCI-60 one-dose screen; type: cell-based; conditions: Homo sapiens; Melanoma MDA-MB-435, 10 μM, 48 h; read-out: Percent growth inhibition
Experimental: as §1, §2

A498 = test: NCI-60 one-dose screen; type: cell-based; conditions: Homo sapiens; Renal A498, 10 μM, 48 h; read-out: Percent growth inhibition
Experimental: as §1, §2

SF-295 = test: NCI-60 one-dose screen; type: cell-based; conditions: Homo sapiens; CNS SF-295, 10 μM, 48 h; read-out: Percent growth inhibition
Experimental: as §1, §2

SNB-75 = test: NCI-60 one-dose screen; type: cell-based; conditions: Homo sapiens; CNS SNB-75, 10 μM, 48 h; read-out: Percent growth inhibition
Experimental: as §1, §2

PERK = biological target: T1, PERK (Homo sapiens, UniProt Q9NZJ5); test: radiometric HotSpot kinase assay; type: biochemical; conditions: 10 μM compound, 10 μM ATP; read-out: % Enzyme inhibition at 10 μM, PERK
T1 construct: purchased Reaction Biology Corporation (Malvern, PA)
T1 sequence (Q9NZJ5 30-1116): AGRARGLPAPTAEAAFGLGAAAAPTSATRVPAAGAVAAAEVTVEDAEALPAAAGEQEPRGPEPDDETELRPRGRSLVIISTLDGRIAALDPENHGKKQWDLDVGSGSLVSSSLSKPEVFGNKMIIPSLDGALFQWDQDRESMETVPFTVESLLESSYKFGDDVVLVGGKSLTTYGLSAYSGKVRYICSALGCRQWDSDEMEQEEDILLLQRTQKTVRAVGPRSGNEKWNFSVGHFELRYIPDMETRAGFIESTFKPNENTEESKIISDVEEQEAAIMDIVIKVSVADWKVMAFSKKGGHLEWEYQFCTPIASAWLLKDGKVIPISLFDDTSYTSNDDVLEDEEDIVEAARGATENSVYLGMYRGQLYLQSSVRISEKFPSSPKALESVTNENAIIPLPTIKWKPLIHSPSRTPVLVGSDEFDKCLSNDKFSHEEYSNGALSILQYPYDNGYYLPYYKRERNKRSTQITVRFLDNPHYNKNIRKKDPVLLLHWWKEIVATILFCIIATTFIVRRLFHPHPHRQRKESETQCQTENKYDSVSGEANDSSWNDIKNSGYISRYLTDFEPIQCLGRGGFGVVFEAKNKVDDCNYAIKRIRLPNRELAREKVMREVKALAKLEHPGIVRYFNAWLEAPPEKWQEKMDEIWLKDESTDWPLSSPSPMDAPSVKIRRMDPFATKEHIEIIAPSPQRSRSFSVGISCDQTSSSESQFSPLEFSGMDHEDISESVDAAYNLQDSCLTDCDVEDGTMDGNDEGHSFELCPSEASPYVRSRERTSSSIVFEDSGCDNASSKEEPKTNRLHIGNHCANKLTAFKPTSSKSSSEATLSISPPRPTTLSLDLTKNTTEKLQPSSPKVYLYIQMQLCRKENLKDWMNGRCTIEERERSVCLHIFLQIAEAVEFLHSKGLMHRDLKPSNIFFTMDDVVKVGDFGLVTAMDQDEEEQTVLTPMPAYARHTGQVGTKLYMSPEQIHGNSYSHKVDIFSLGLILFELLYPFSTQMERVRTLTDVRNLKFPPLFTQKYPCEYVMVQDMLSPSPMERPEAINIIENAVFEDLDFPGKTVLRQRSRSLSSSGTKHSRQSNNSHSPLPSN
Experimental: In vitro compound profiling for recombinant GCN2, PERK, HRI, PKR, or IRE1 kinases were performed at Reaction Biology Corporation (Malvern, PA) using the HotSpot kinase assay. Briefly, all compounds provided for testing were dissolved in 10 mM DMSO stock solutions. […] Specific kinase/substrate mixtures and required cofactors were prepared in reaction buffer (20 mM Hepes (pH 7.5), 10 mM MgCl2, 1 mM EGTA, 0.02% Brij35, 0.02 mg/ml BSA, 0.1 mM Na3VO4, 2 mM DTT, 1% DMSO). Compounds were added to the kinase reaction mixture by Acoustic technology (Echo550; nanoliter range) and incubated for 20 min at room temperature. […] The reaction was incubated or 2 h at room temperature and kinase activity was detected by filter-binding method. IC50 values and curves were generated with GraphPad Prism 7 (GraphPad software).

HL-60(TB) = test: NCI-60 one-dose screen; type: cell-based; conditions: Homo sapiens, HL-60, 48 h, read-out: Percent growth inhibition

SMILES | inhibition at 10 µM (MDA-MB-468) [%] | inhibition at 10 µM (OVCAR-3) [%] | inhibition at 10 µM (RXF393) [%] | inhibition at 10 µM (SF-539) [%] | inhibition at 10 µM (OVCAR-5) [%] | inhibition at 10 µM (U251) [%] | inhibition at 10 µM (MDA-MB-435) [%] | inhibition at 10 µM (A498) [%] | inhibition at 10 µM (SF-295) [%] | inhibition at 10 µM (SNB-75) [%] | inhibition at 10 µM (PERK) [%] | inhibition at 10 µM (HL-60(TB)) [%]
CCn1cc(Nc2ncc3nnn(-c4ccc(C(=O)OC)cc4)c3n2)cn1 [Compound 1, Methyl 4-(5-((1-ethyl-1H-pyrazol-4-yl)amino)-3H-[1,2,3]triazolo[4,5-d]pyrimidin-3-yl)benzoate] | 6.13 | 8.48 | -4.13 | -9.47 | -5.43 | 27.6 | 9.99 | 10.5 | -2.41 | 23.4 | 24 | 8.55
CCOc1ccc(-n2nnc3cnc(Nc4cnn(CC)c4)nc32)cc1 [Compound 2, 3-(4-Ethoxyphenyl)-N-(1-ethyl-1H-pyrazol-4-yl)-3H-[1,2,3]triazolo[4,5-d]pyrimidin-5-amine] | 9.91 | 6.71 | 43.8 | 32 | -11.8 | 24.3 | 20 | 44.1 | 3.75 | 44.6 | < 10 | 24.6
